Assay results from patent US20190125702A1, “Methods and Compositions for the Treatment of Demyelinating Disorders” (Vitality Biopharma, Inc., priority 2016, published 2019).
“Also recorded” adds a separate entry of the source.

Experiments:
[1] = test system: E18 rat embryonic cortical co-cultures (MBP fiber length/Olig2 nuclei); experiment: embryonic cortical cell co-culture myelination assay; type: cell-based; conditions: for EC50: Rattus norvegicus, 192 h, cortical myelination assay, eight days treatment, N >= 2; for myelination in the cortical myelination assay (in words): compound added DIV5, eight days, live axons
Source text: Embryonic Cortical Culture Methods: The dissection of E18 rat (Charles River, Wilmington, Mass., USA) cortex is similar to that described previously, [32], [33] with some modifications. Briefly whole cortices from three embryos were collected in a petri dish containing HBSS. After carefully removing the meninges, the tissue was divided into cortical hemispheres, dissected and the non-cortical structures were removed. Cortical tissue was then digested in 7 U/ml papain dissolved in HBSS with 500 U/ml DNase I, and incubated for 30 minutes at 35° C. The enzymatic reaction was terminated with DMEM containing 10% FBS. The tissue was allowed to settle, supernatant was removed and tissue was triturated with a flame-polished glass Pasteur pipette in DMEM/10% FBS, 250 U/ml DNAse I until the tissue was completely dispersed. The dissociated cell suspension was centrifuged at 200×g for 5 minutes and supernatant replaced with plating medium (NB medium with 1× N21 supplement and 2 mM L-glutamine and 1% penicillin-streptomycin). […] Isolated cells were seeded onto 96-well plates pre-coated with poly-D-lysine (10 μg/m1) and laminin (2 ␣/ml) at a density of 20,000 cells/well ([…]). Neurons were allowed to adhere, recover, mature and extend axons for three days. On the fourth day, the plating medium was diluted with an equivolume of myelination medium (MyM), as described in Watkins et al., 2008 [9] with minor modifications (see results). The following day, two-thirds of the medium was replaced with fresh MyM and test compound. The day after establishing the primary culture was defined as day 1 in vitro (DIV1).
Immunofluorescence Staining and Imaging: At the experimental end point, medium was removed leaving 50 μl/well using an ELX405 microplate washer (BioTek, Winooski, Vt., USA). Cells were then fixed for 14 min with paraformaldehyde solution to a final concentration of 4%. Following fixation, plates were washed with 1 ml PBS leaving 50 μl/well using the microplate washer. Cells were then blocked in blocking buffer (10% normal goat serum, 0.1% Triton X-100, antibody buffer (150 mM NaCl, 50 mM Tris Base, 1% BSA, 100 mM L-lysine, 0.004% sodium azide, pH 7.4), and stained with mouse anti-rat MBP antibody and anti-rabbit Olig2 diluted in blocking buffer overnight at 4° C. The cells were washed and incubated with secondary antibodies, and DAPI, 0.3 μM for 1 h at room temperature. After a final wash, 100 μl of PBS was added to each well and plates imaged. Images were captured with a Nikon Eclipse TE-2000-U microscope, Zyla cMOS megapixel camera (ANDOR Technology, Belfast, UK), fitted with an automated stage controlled by NIS Elements AR software 4.0 (Melville, N.Y., USA). An air 10× lens was used to capture four images per well with 16 bit resolution, 2560×2160 pixels. Images for each assay run were captured using identical camera settings. Images were exported as TIFF files for analysis and quantification.
Image Quantification: TIFF files were analyzed using a custom algorithm created with IN Cell Investigator Developer Toolbox (GE Health Sciences, Piscataway, N.J., USA). For each well, four images were analyzed and the data from the duplicate well combined and averaged (total of eight images per test condition). The extent of OL differentiation was defined by the total threshold-selected area of MBP staining×MBP fluorescence intensity in this area divided by the total number of OLs (identified by Olig2 nuclear staining). We referred to this as the “MBP score” or “OL differentiation”. Earlier publications have characterized in vitro myelination as contiguous segments of MBP staining co-localizing with axons, representing the contact and ensheathment of axons with the myelin membrane generated by OLs.

[2] = test system: purified OPCs from P7 Sprague-Dawley rat pups; experiment: acute oligodendrocyte differentiation assay with acutely purified OPCs; type: cell-based; conditions: 4 days culture, MBP staining intensity
Description: Acute Oligodendrocyte Differentiation Assay: OPCs from P7 Sprague-Dawley rat pups were purified by immunopanning and cultured as described. OPCs were plated at 5000 cells/well into pDL-Laminin coated 96-well TC plate wells and centrifuged at 200×g to facilitate cell attachment, survival, and assure even distribution of OPCs. Plated OPCs were pre-incubated for 1-2 hours at 37° C. in 10% CO2 incubator, followed by addition of test compounds in quadruplicate. Controls were added in eight replicate wells, negative control=0.1% DMSO final concentration; positive control=40 ng/ml T3. The day of OPC plating was considered DIV0. On DIV4, cells were fixed, immunostained, and imaged as described below. Minor modifications include blocking cells with 10% normal goat serum (NGS)/0.4% Triton X-100 and staining overnight at 4° C. with rat anti-MBP antibodies diluted in 10% NGS/0.08% Triton X-100. OL differentiation was quantified by IN Cell Developer Toolbox image analysis software which calculated the MBP staining intensity of two images per well. The extent of OL differentiation was defined by the total threshold-selected area of MBP staining×MBP fluorescence intensity in this area divided by the total number of OLs (identified by DAPI nuclear staining).

[3] = test system: purified OPCs; conditions: lead compounds of published studies [2],[3],[4]; cited from earlier work

| Compound | EC50 [1] [µM] | myelination in the cortical myelination assay (in words) [1] | other results |
| --- | --- | --- | --- |
| N=C(N)NC(=O)c1nc(Cl)c(N)nc1N [Amiloride] | 8.9 | – | – |
| CC(=O)O[C@@]12CO[C@@H]1C[C@H](O)[C@@]1(C)C(=O)[C@H](O)C3=C(C)[C@@H](OC(=O)[C@H](O)[C@@H](NC(=O)OC(C)(C)C)c4ccccc4)C[C@@](O)([C@@H](OC(=O)c4ccccc4)[C@H]21)C3(C)C [Docetaxel] | 0.1 | – | – |
| COc1cc(CNC(=O)CCCC/C=C\C(C)C)ccc1O [Zu-capsaicin] | 4.7 | – | – |
| COc1ccc(CC2c3cc(OC)c(OC)cc3CC[N+]2(C)CCC(=O)OCCCCCOC(=O)CC[N+]2(C)CCc3cc(OC)c(OC)cc3C2Cc2ccc(OC)c(OC)c2)cc1OC (stereo not shown) [Atracurium Besylate] | 5.3 | – | – |
| O=S(=O)(NC1CCC(c2cc(F)ccc2F)(S(=O)(=O)c2ccc(Cl)cc2)CC1)C(F)(F)F (stereo not shown) [MRK 560] | 0.082 | – | – |
| CN1CCC[C@@H]1CCO[C@](C)(c1ccccc1)c1ccc(Cl)cc1 [clemastine] | – | little to no activity; also recorded: no effect on myelination; also recorded: did not promote myelination | OL differentiation of purified OPCs (in words) [2]: facilitate OL differentiation; also recorded: significant OL differentiation; OL differentiation in cultures of purified OPCs (published screens) [3]: facilitate OL differentiation |
| C[C@H]1O[C@@H](O[C@H]2[C@@H](O)C[C@H](O[C@H]3[C@@H](O)C[C@H](O[C@H]4CC[C@@]5(C)[C@H](CC[C@@H]6[C@@H]5C[C@@H](O)[C@]5(C)[C@@H](C7=CC(=O)OC7)CC[C@]65O)C4)O[C@@H]3C)O[C@@H]2C)C[C@H](O)[C@@H]1O [Digoxin] | 11.3 | – | – |
| C[C@H]1[C@H](OC(=O)CCC(=O)O)O[C@@H]2O[C@@]3(C)CC[C@H]4[C@H](C)CC[C@@H]1[C@@]24OO3 [Artesunate] | 3.3 | – | – |
| Clc1ccc(COC(Cn2ccnc2)c2ccc(Cl)cc2Cl)c(Cl)c1 (stereo not shown) [miconazole] | – | no effect on myelination | OL differentiation in cultures of purified OPCs (published screens) [3]: facilitate OL differentiation |
| O=c1[nH]c(=O)n(C2CCCO2)cc1F (stereo not shown) [Tegafur] | 2.7 | – | – |
| CN1[C@@H]2CC[C@H]1C[C@@H](OC(c1ccccc1)c1ccccc1)C2 [benztropine] | – | little to no activity; also recorded: no effect on myelination; also recorded: did not promote myelination | OL differentiation of purified OPCs (in words) [2]: facilitate OL differentiation; also recorded: significant OL differentiation; OL differentiation in cultures of purified OPCs (published screens) [3]: facilitate OL differentiation |
| C[C@H](NC(=O)Cc1cc(F)cc(F)c1)C(=O)N[C@H](C(=O)OC(C)(C)C)c1ccccc1 [DAPT, N-[N-(3,5-Difluorophenacetyl)-L-alanyl]-S-phenylglycine t-butyl ester] | – | significant dose-dependent increases in myelination | reduction of the number of Olig2+ cells [1]: ~50%; DAPT/DMSO myelination ratio ([1]; 5 days NB/N21 and 8 days MyM plus test compound): 7.7; fiber/MBP score, typically observed ([1]; DAPT treated cultures): > 1.5; promotion of myelination, fold over DMSO ([1]; cultures without exogenously added OPCs): 1.76 fold over DMSO; average DAPT/DMSO Fiber/MBP ratio ([1]; entire NCC library screen, plate controls): 1.61 |
| C[C@H]1C[C@H]2[C@@H]3CCC4=CC(=O)C=C[C@]4(C)[C@@]3(F)[C@@H](O)C[C@]2(C)[C@@]1(O)C(=O)CCl [clobetasol] | – | no effect on myelination | OL differentiation in cultures of purified OPCs (published screens) [3]: facilitate OL differentiation |
| CN(Cc1cnc2nc(N)nc(N)c2n1)c1ccc(C(=O)N[C@@H](CCC(=O)O)C(=O)O)cc1 [Methotrexate] | 0.1 | – | Olig2+ nuclei expression (in words) ([1]; NCC library screen): very low overall Olig2+ nuclei expression |
| NC(=O)N1c2ccccc2CC(=O)c2ccccc21 [Oxcarbazepine] | 14.7 | – | – |
| NC(=O)[C@@H](CCC(F)(F)F)N(Cc1ccc(-c2ncon2)cc1F)S(=O)(=O)c1ccc(Cl)cc1 [BMS 708, 163] | 0.067 | – | – |
